In patent EP2987533B1, “7-substituted piperazin-1-yl fluoroquinolone compounds, their use in the treatment of cancer, pharmaceutical compositions and a method for preparation” (priority 2014, dated 2016):

Key:
[1] = system: renal cancer; assay: NCI five-dose SRB assay, subpanel average; settings: 48 h; for GI50 / CC50: Homo sapiens; for GI50: read-out: GI50 (median growth inhibitory); for CC50: read-out: LC50 (median lethal); for TGI (total growth inhibitory): average over renal cancer subpanel, five concentrations
[2] = system: melanoma; assay: NCI five-dose SRB assay, subpanel average; settings: 48 h; for GI50 / CC50: Homo sapiens; for GI50: read-out: GI50 (median growth inhibitory); for CC50: read-out: LC50 (median lethal); for TGI (total growth inhibitory): average over melanoma subpanel, five concentrations
[3] = system: breast cancer; assay: NCI five-dose SRB assay, subpanel average; settings: 48 h; for GI50 / CC50: Homo sapiens; for GI50: read-out: GI50 (median growth inhibitory); for CC50: read-out: LC50 (median lethal); for TGI (total growth inhibitory): average over breast cancer subpanel, five concentrations
[4] = system: leukemia; assay: NCI five-dose SRB assay, subpanel average; settings: 48 h; for GI50 / CC50: Homo sapiens; for GI50: read-out: GI50 (median growth inhibitory); for CC50: read-out: LC50 (median lethal); for TGI (total growth inhibitory): average over leukemia subpanel, five concentrations
[5] = system: CNS cancer; assay: NCI five-dose SRB assay, subpanel average; settings: 48 h; for GI50 / CC50: Homo sapiens; for GI50: read-out: GI50 (median growth inhibitory); for CC50: read-out: LC50 (median lethal); for TGI (total growth inhibitory): average over CNS cancer subpanel, five concentrations
[6] = system: prostate cancer; assay: NCI five-dose SRB assay, subpanel average; settings: 48 h; for GI50 / CC50: Homo sapiens; for GI50: read-out: GI50 (median growth inhibitory); for CC50: read-out: LC50 (median lethal); for TGI (total growth inhibitory): average over prostate cancer subpanel, five concentrations
[7] = system: NSC lung cancer; assay: NCI five-dose SRB assay, subpanel average; settings: 48 h; for GI50 / CC50: Homo sapiens; for GI50: read-out: GI50 (median growth inhibitory); for CC50: read-out: LC50 (median lethal); for TGI (total growth inhibitory): average over NSC lung cancer subpanel, five concentrations
[8] = system: 60 human tumor cell line panel; assay: NCI 60 cell line one-dose SRB primary anticancer assay; type: cell-based; settings: 60 cell lines assay in one dose, 10µM (title; head prints 10.0 mM), 48 h; for inhibition at 10 µM: Homo sapiens, read-out: MGI % (Mean growth inhibition percentage)
[9] = system: A549/ATCC; assay: NCI one-dose SRB growth assay; type: cell-based; settings: Homo sapiens; A549/ATCC (Non-Small Cell Lung Cancer), 10^-5 M, 48 h; read-out: % Growth Inhibition (GI %)
Protocol: (§1) A primary anticancer assay was performed for an approximately 60 human tumor cell line panel derived from nine neoplastic diseases, in accordance with the protocol of the Drug Evaluation Branch, National Cancer Institute, Bethesda, MD (Monks A. et al., J. Natl. Cancer Inst 1991, 83, 757-766; Boyd M.R. and Paull K.D., Drug. Dev. Res. 1995, 34, 91-109; Shoemaker R.H., Nat. Rev. Cancer 2006, 6, 813-823). Briefly, tested compounds were added to the culture at a single concentration (10^-5M), and the cultures were incubated for 48 h. End point determinations were made with a protein binding dye, sulforhodamine B (SRB). The results for each tested compound were reported as the growth percentage of the treated cells when compared to that of the untreated control cells. The percentage growth was evaluated spectrophotometrically versus controls not treated with test agents.

[10] = system: HOP-62; assay: NCI one-dose SRB growth assay; type: cell-based; settings: Homo sapiens; HOP-62 (Non-Small Cell Lung Cancer), 10^-5 M, 48 h; read-out: % Growth Inhibition (GI %)
Protocol: as §1

[11] = system: HCT-116; assay: NCI one-dose SRB growth assay; type: cell-based; settings: Homo sapiens; HCT-116 (Colon Cancer), 10^-5 M, 48 h; read-out: % Growth Inhibition (GI %)
Protocol: as §1

[12] = system: SF-295; assay: NCI one-dose SRB growth assay; type: cell-based; settings: Homo sapiens; SF-295 (CNS Cancer), 10^-5 M, 48 h; read-out: % Growth Inhibition (GI %)
Protocol: as §1

[13] = system: SR; assay: NCI one-dose SRB growth assay; type: cell-based; settings: Homo sapiens; SR (Leukemia), 10^-5 M, 48 h; read-out: % Growth Inhibition (GI %)
Protocol: as §1

[14] = system: SK-OV-3; assay: NCI one-dose SRB growth assay; type: cell-based; settings: Homo sapiens; SK-OV-3 (Ovarian Cancer), 10^-5 M, 48 h; read-out: % Growth Inhibition (GI %)
Protocol: as §1

[15] = system: SW-620; assay: NCI one-dose SRB growth assay; type: cell-based; settings: Homo sapiens; SW-620 (Colon Cancer), 10^-5 M, 48 h; read-out: % Growth Inhibition (GI %)
Protocol: as §1

[16] = system: IGROV1; assay: NCI one-dose SRB growth assay; type: cell-based; settings: Homo sapiens, IGROV-1; IGROV1 (Ovarian Cancer), 10^-5 M, 48 h; read-out: % Growth Inhibition (GI %)
Protocol: as §1

[17] = system: NCI-H23; assay: NCI one-dose SRB growth assay; type: cell-based; settings: Homo sapiens; NCI-H23 (Non-Small Cell Lung Cancer), 10^-5 M, 48 h; read-out: % Growth Inhibition (GI %)
Protocol: as §1

[18] = system: UO-31; assay: NCI one-dose SRB growth assay; type: cell-based; settings: Homo sapiens; UO-31 (Renal Cancer), 10^-5 M, 48 h; read-out: % Growth Inhibition (GI %)
Protocol: as §1

[19] = system: NCI-H226; assay: NCI one-dose SRB growth assay; type: cell-based; settings: Homo sapiens; NCI-H226 (Non-Small Cell Lung Cancer), 10^-5 M, 48 h; read-out: % Growth Inhibition (GI %)
Protocol: as §1

[20] = system: NCI-H522; assay: NCI one-dose SRB growth assay; type: cell-based; settings: Homo sapiens; NCI-H522 (Non-Small Cell Lung Cancer), 10^-5 M, 48 h; read-out: % Growth Inhibition (GI %)
Protocol: as §1

[21] = system: MDA-MB-435; assay: NCI one-dose SRB growth assay; type: cell-based; settings: Homo sapiens; MDA-MB-435 (Melanoma), 10^-5 M, 48 h; read-out: % Growth Inhibition (GI %)
Protocol: as §1

[22] = system: ACHN; assay: NCI one-dose SRB growth assay; type: cell-based; settings: Homo sapiens; ACHN (Renal Cancer), 10^-5 M, 48 h; read-out: % Growth Inhibition (GI %)
Protocol: as §1

[23] = system: OVCAR-8; assay: NCI one-dose SRB growth assay; type: cell-based; settings: Homo sapiens; OVCAR-8 (Ovarian Cancer), 10^-5 M, 48 h; read-out: % Growth Inhibition (GI %)
Protocol: as §1

[24] = system: SK-MEL-5; assay: NCI one-dose SRB growth assay; type: cell-based; settings: Homo sapiens; SK-MEL-5 (Melanoma), 10^-5 M, 48 h; read-out: % Growth Inhibition (GI %)
Protocol: as §1

[25] = system: HL-60(TB); assay: NCI one-dose SRB growth assay; type: cell-based; settings: Homo sapiens; HL-60(TB) (Leukemia), 10^-5 M, 48 h; read-out: % Growth Inhibition (GI %)
Protocol: as §1

[26] = system: TK-10; assay: NCI one-dose SRB growth assay; type: cell-based; settings: Homo sapiens; TK-10 (Renal Cancer), 10^-5 M, 48 h; read-out: % Growth Inhibition (GI %)
Protocol: as §1

Cc1cc(C)c(S(=O)(=O)N2CCN(c3cc4c(cc3F)c(=O)c(C(=O)O)cn4C3CC3)CC2)c(C)c1 [Compound 6b]
GI50 [1]: 2780 nM
CC50 [1]: > 100 µM
TGI (total growth inhibitory) [1]: c (Compounds showed values > 100µM)
GI50 [2]: 22.3 µM
CC50 [2]: > 100 µM
TGI (total growth inhibitory) [2]: c (Compounds showed values > 100µM)
GI50 [3]: 2850 nM
CC50 [3]: > 100 µM
TGI (total growth inhibitory) [3]: 76.89 µM
GI50 [4]: 2570 nM
CC50 [4]: > 100 µM
TGI (total growth inhibitory) [4]: 76.70 µM
GI50 [5]: 2950 nM
CC50 [5]: > 100 µM
TGI (total growth inhibitory) [5]: c (Compounds showed values > 100µM)
GI50 [6]: 3.4 µM
CC50 [6]: > 100 µM
TGI (total growth inhibitory) [6]: c (Compounds showed values > 100µM)
GI50 [7]: 2880 nM
CC50 [7]: > 100 µM
TGI (total growth inhibitory) [7]: c (Compounds showed values > 100µM)
PCE (Positive cytotoxic effect: ratio between number of cell lines with percentage growth inhibition from 10 to >100 and total number of cell lines) [8]: 56/58
RGI % (Range of growth inhibition percentage) [8]: 91.28 to 13.08%
inhibition at 10 µM [8]: 43.8%
inhibition at 10 µM [9]: 79.7%
inhibition at 10 µM [10]: 42.7%
inhibition at 10 µM [11]: 67.8%
inhibition at 10 µM [12]: 66.8%
inhibition at 10 µM [13]: 60.9%
inhibition at 10 µM [14]: 18.4%
inhibition at 10 µM [15]: 20.2%
inhibition at 10 µM [16]: 64.3%
inhibition at 10 µM [17]: 42.6%
inhibition at 10 µM [18]: 83.9%
inhibition at 10 µM [19]: 28.2%
inhibition at 10 µM [20]: 32.7%
inhibition at 10 µM [21]: 23.9%
inhibition at 10 µM [22]: 48.7%
inhibition at 10 µM [23]: 40.5%
inhibition at 10 µM [24]: 45.1%
inhibition at 10 µM [25]: 91.3%
inhibition at 10 µM [26]: 13.5%

CCn1cc(C(=O)O)c(=O)c2cc(F)c(N3CCN(S(=O)(=O)c4ccc(Cl)cc4Cl)CC3)cc21 [Compound 2a]
GI50 [1]: 2730 nM
CC50 [1]: 82.5 µM
TGI (total growth inhibitory) [1]: 23.97 µM
GI50 [2]: 2.3 µM
CC50 [2]: 39.5 µM
TGI (total growth inhibitory) [2]: 6.36 µM
GI50 [3]: 2510 nM
CC50 [3]: 88.1 µM
TGI (total growth inhibitory) [3]: 8.44 µM
GI50 [4]: 3070 nM
CC50 [4]: > 100 µM
TGI (total growth inhibitory) [4]: 62.54 µM
GI50 [5]: 3030 nM
CC50 [5]: 77.2 µM
TGI (total growth inhibitory) [5]: 34.84 µM
GI50 [6]: 2.62 µM
CC50 [6]: > 100 µM
TGI (total growth inhibitory) [6]: 8.72 µM
GI50 [7]: 2490 nM
CC50 [7]: 73.2 µM
TGI (total growth inhibitory) [7]: 19.61 µM
PCE (Positive cytotoxic effect: ratio between number of cell lines with percentage growth inhibition from 10 to >100 and total number of cell lines) [8]: 56/58
RGI % (Range of growth inhibition percentage) [8]: >100.0 to 25.22%
inhibition at 10 µM [8]: 94.2%
inhibition at 10 µM [9]: 98%
inhibition at 10 µM [10]: 80.5%
inhibition at 10 µM [11]: 93.6%
inhibition at 10 µM [12]: > 100%
inhibition at 10 µM [13]: > 100%
inhibition at 10 µM [14]: 98.3%
inhibition at 10 µM [15]: 83.7%
inhibition at 10 µM [16]: 92.5%
inhibition at 10 µM [17]: > 100%
inhibition at 10 µM [18]: > 100%
inhibition at 10 µM [19]: 86.9%
inhibition at 10 µM [20]: > 100%
inhibition at 10 µM [21]: 87.2%
inhibition at 10 µM [22]: > 100%
inhibition at 10 µM [23]: 94.2%
inhibition at 10 µM [24]: > 100%
inhibition at 10 µM [25]: > 100%
inhibition at 10 µM [26]: 87.6%
